From US20230085307A1, “PYRIDAZINONE COMPOUND AND HERBICIDE” (NISSAN CHEMICAL CORPORATION, priority 2019, published 2023)

Tests used:
[1] = system: velvetleaf; experiment: Test Example 5: herbicidal effect by foliage application, plastic box (Table 20, symbol M); type: in vivo, velvetleaf (Abutilon theophrasti); details: amount of applied herbicide 320 g/ha; foliage application after 14-day growth; evaluated three weeks after application
Outline: (§1)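 Plants were sown into sterilized diluvial soil under about 1.5 cm cover and kept in a greenhouse at 25° C. to 30° C. Fourteen days on, foliage received an even spray of the diluted emulsion. Herbicidal or crop effect was judged three weeks afterwards.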

[2] = system: chickweed; experiment: Test Example 4: herbicidal effect by soil treatment (Table 19, symbol P); type: in vivo, common chickweed (Stellaria media); details: amount of applied herbicide 320 g/ha
Outline: (§2)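 Pre-emergence style soil spray: seeds under ~1.5 cm sterilized diluvial soil received a uniform coat of emulsion diluted to the predetermined herbicide amount. Greenhouse 25–30° C; readout at week three on previously defined criteria.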

[3] = system: lambsquarters; experiment: Test Example 4: herbicidal effect by soil treatment (Table 19, symbol O); type: in vivo, lambsquarters (Chenopodium album); details: amount of applied herbicide 320 g/ha
Outline: as §2

[4] = system: chickweed; experiment: Test Example 5: herbicidal effect by foliage application, plastic box (Table 20, symbol P); type: in vivo, common chickweed (Stellaria media); details: amount of applied herbicide 320 g/ha; foliage application after 14-day growth; evaluated three weeks after application
Outline: as §1

[5] = system: blackgrass; experiment: Test Example 5: herbicidal effect by foliage application, plastic box (Table 20, symbol J); type: in vivo, blackgrass (Alopecurus myosuroides); details: amount of applied herbicide 320 g/ha; foliage application after 14-day growth; evaluated three weeks after application
Outline: as §1

[6] = system: persian speedwell; experiment: Test Example 4: herbicidal effect by soil treatment (Table 19, symbol R); type: in vivo, Persian speedwell (Veronica persica); details: amount of applied herbicide 320 g/ha
Outline: as §2

[7] = system: redroot pigweed; experiment: Test Example 5: herbicidal effect by foliage application, plastic box (Table 20, symbol N); type: in vivo, redroot pigweed (Amaranthus retroflexus); details: amount of applied herbicide 320 g/ha; foliage application after 14-day growth; evaluated three weeks after application
Outline: as §1

[8] = system: Japanese bulrush; experiment: Test Example 1: herbicidal activity, application before weed generation under submerged conditions (Table 16, symbol B); type: in vivo, Japanese bulrush (Schoenoplectus juncoides); details: amount of applied herbicide 320 g/ha
Outline: (§3)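 Submerged Wagner pots (alluvial soil, 4 cm water) sown with weed seeds and planted with 2.5-leaf rice seedlings; emulsifiable concentrate diluted in water applied to water surface on sowing day. Held in greenhouse at 25-30 °C; injury scored 0-5 by herbicidal rate after three weeks.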

[9] = system: lambsquarters; experiment: Test Example 5: herbicidal effect by foliage application, plastic box (Table 20, symbol O); type: in vivo, lambsquarters (Chenopodium album); details: amount of applied herbicide 320 g/ha; foliage application after 14-day growth; evaluated three weeks after application
Outline: as §1

[10] = system: wild oat; experiment: Test Example 5: herbicidal effect by foliage application, plastic box (Table 20, symbol I); type: in vivo, wild oat (Avena fatua); details: amount of applied herbicide 320 g/ha; foliage application after 14-day growth; evaluated three weeks after application
Outline: as §1

[11] = system: redroot pigweed; experiment: Test Example 4: herbicidal effect by soil treatment (Table 19, symbol N); type: in vivo, redroot pigweed (Amaranthus retroflexus); details: amount of applied herbicide 320 g/ha
Outline: as §2

[12] = system: windgrass; experiment: Test Example 5: herbicidal effect by foliage application, plastic box (Table 20, symbol L); type: in vivo, windgrass (Apera spica-venti); details: amount of applied herbicide 320 g/ha; foliage application after 14-day growth; evaluated three weeks after application
Outline: as §1

[13] = system: rice flat sedge; experiment: Test Example 3: herbicidal effect by foliage application, Wagner pot (Table 18, symbol E); type: in vivo, rice flat sedge (Cyperus iria); details: 320 g/ha
Outline: (§4)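 Plants were sown in alluvial soil held under 0.1–0.5 cm standing water and grown 14 days in a greenhouse at 25–30 °C. An emulsifiable formulation, water-diluted to the set dose, was then sprayed onto the foliage, and effects were scored three weeks later using previously defined criteria.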

[14] = system: late watergrass; experiment: Test Example 1: herbicidal activity, application before weed generation under submerged conditions (Table 16, symbol A); type: in vivo, late watergrass (Echinochloa oryzicola); details: amount of applied herbicide 320 g/ha
Outline: as §3

[15] = system: wild oat; experiment: Test Example 4: herbicidal effect by soil treatment (Table 19, symbol I); type: in vivo, wild oat (Avena fatua); details: amount of applied herbicide 320 g/ha
Outline: as §2

[16] = system: persian speedwell; experiment: Test Example 5: herbicidal effect by foliage application, plastic box (Table 20, symbol R); type: in vivo, Persian speedwell (Veronica persica); details: amount of applied herbicide 320 g/ha; foliage application after 14-day growth; evaluated three weeks after application
Outline: as §1

[17] = system: barnyard grass; experiment: Test Example 4: herbicidal effect by soil treatment (Table 19, symbol H); type: in vivo, barnyard grass (Echinochloa crus-galli); details: amount of applied herbicide 320 g/ha
Outline: as §2

[18] = system: barnyard grass; experiment: Test Example 5: herbicidal effect by foliage application, plastic box (Table 20, symbol H); type: in vivo, barnyard grass (Echinochloa crus-galli); details: amount of applied herbicide 320 g/ha; foliage application after 14-day growth; evaluated three weeks after application
Outline: as §1

[19] = system: false cleavers; experiment: Test Example 5: herbicidal effect by foliage application, plastic box (Table 20, symbol Q); type: in vivo, false cleavers (Galium spurium); details: amount of applied herbicide 320 g/ha; foliage application after 14-day growth; evaluated three weeks after application
Outline: as §1

[20] = system: southern crabgrass; experiment: Test Example 4: herbicidal effect by soil treatment (Table 19, symbol F); type: in vivo, southern crabgrass (Digitaria ciliaris); details: amount of applied herbicide 320 g/ha
Outline: as §2

[21] = system: Italian ryegrass; experiment: Test Example 5: herbicidal effect by foliage application, plastic box (Table 20, symbol K); type: in vivo, Italian ryegrass (Lolium multiflorum); details: amount of applied herbicide 320 g/ha; foliage application after 14-day growth; evaluated three weeks after application
Outline: as §1

[22] = system: southern crabgrass; experiment: Test Example 5: herbicidal effect by foliage application, plastic box (Table 20, symbol F); type: in vivo, southern crabgrass (Digitaria ciliaris); details: amount of applied herbicide 320 g/ha; foliage application after 14-day growth; evaluated three weeks after application
Outline: as §1

[23] = system: Italian ryegrass; experiment: Test Example 4: herbicidal effect by soil treatment (Table 19, symbol K); type: in vivo, Italian ryegrass (Lolium multiflorum); details: amount of applied herbicide 320 g/ha
Outline: as §2

[24] = system: windgrass; experiment: Test Example 4: herbicidal effect by soil treatment (Table 19, symbol L); type: in vivo, windgrass (Apera spica-venti); details: amount of applied herbicide 320 g/ha
Outline: as §2

[25] = system: green foxtail; experiment: Test Example 5: herbicidal effect by foliage application, plastic box (Table 20, symbol G); type: in vivo, green foxtail (Setaria viridis); details: amount of applied herbicide 320 g/ha; foliage application after 14-day growth; evaluated three weeks after application
Outline: as §1

[26] = system: green foxtail; experiment: Test Example 4: herbicidal effect by soil treatment (Table 19, symbol G); type: in vivo, green foxtail (Setaria viridis); details: amount of applied herbicide 320 g/ha
Outline: as §2

[27] = system: velvetleaf; experiment: Test Example 4: herbicidal effect by soil treatment (Table 19, symbol M); type: in vivo, velvetleaf (Abutilon theophrasti); details: amount of applied herbicide 320 g/ha
Outline: as §2

[28] = system: barnyard grass; experiment: Test Example 3: herbicidal effect by foliage application, Wagner pot (Table 18, symbol H); type: in vivo, barnyard grass (Echinochloa crus-galli); details: 320 g/ha
Outline: as §4

[29] = system: Chinese sprangletop; experiment: Test Example 3: herbicidal effect by foliage application, Wagner pot (Table 18, symbol D); type: in vivo, chinese sprangletop (Leptochloa chinensis); details: 320 g/ha
Outline: as §4

[30] = system: oval-leafed pondweed; experiment: Test Example 1: herbicidal activity, application before weed generation under submerged conditions (Table 16, symbol C); type: in vivo, oval-leafed pondweed (Monochoria vaginalis); details: amount of applied herbicide 320 g/ha
Outline: as §3

[31] = system: blackgrass; experiment: Test Example 4: herbicidal effect by soil treatment (Table 19, symbol J); type: in vivo, blackgrass (Alopecurus myosuroides); details: amount of applied herbicide 320 g/ha
Outline: as §2

| Structure (SMILES) | Herbicidal effect by foliage application, M: velvetleaf [1] | P: chickweed, herbicidal effect grade [2] | O: lambsquarters, herbicidal effect grade [3] | Herbicidal effect by foliage application, P: chickweed [4] | Herbicidal effect by foliage application, J: blackgrass [5] | R: persian speedwell, herbicidal effect grade [6] | Herbicidal effect by foliage application, N: redroot pigweed [7] | Herbicidal effect, B: Japanese bulrush [8] | Herbicidal effect by foliage application, O: lambsquarters [9] | Herbicidal effect by foliage application, I: wild oat [10] | N: redroot pigweed, herbicidal effect grade [11] | Herbicidal effect by foliage application, L: windgrass [12] | herbicidal effect on rice flat sedge (E) [13] | Herbicidal effect, A: late watergrass [14] | I: wild oat, herbicidal effect grade [15] | Herbicidal effect by foliage application, R: persian speedwell [16] | H: barnyard grass, herbicidal effect grade [17] | Herbicidal effect by foliage application, H: barnyard grass [18] | Herbicidal effect by foliage application, Q: false cleavers [19] | F: southern crabgrass, herbicidal effect grade [20] | other results |
| --- | --- | --- | --- | --- | --- | --- | --- | --- | --- | --- | --- | --- | --- | --- | --- | --- | --- | --- | --- | --- | --- |
| CCCC(=O)Oc1c(C)nn(C)c(=O)c1-c1c(-c2ccc(COC)cc2)sc2cc(F)c(F)cc12 [5-010] | 0 (Herbicidal rate of 5% or less (almost no effect)) | 0 (Herbicidal rate of 5% or less (almost no effect)) | 3 (Herbicidal rate of 40% or more and less than 70%) | 3 (Herbicidal rate of 40% or more and less than 70%) | 0 (Herbicidal rate of 5% or less (almost no effect)) | 2 (Herbicidal rate of 20% or more and less than 40%) | 2 (Herbicidal rate of 20% or more and less than 40%) | 2 (Herbicidal rate of 20% or more and less than 40%) | 3 (Herbicidal rate of 40% or more and less than 70%) | 0 (Herbicidal rate of 5% or less (almost no effect)) | 3 (Herbicidal rate of 40% or more and less than 70%) | 0 (Herbicidal rate of 5% or less (almost no effect)) | 4 (Herbicidal rate of 70% or more and less than 90%) | 0 (Herbicidal rate of 5% or less (almost no effect)) | 0 (Herbicidal rate of 5% or less (almost no effect)) | 5 (Herbicidal rate of 90% or more (almost completely withered)) | 2 (Herbicidal rate of 20% or more and less than 40%) | 1 (Herbicidal rate of 5% or more and less than 20%) | 5 (Herbicidal rate of 90% or more (almost completely withered)) | 0 (Herbicidal rate of 5% or less (almost no effect)) | Herbicidal effect by foliage application, K: Italian ryegrass [21]: 1 (Herbicidal rate of 5% or more and less than 20%); Herbicidal effect by foliage application, F: southern crabgrass [22]: 0 (Herbicidal rate of 5% or less (almost no effect)); K: Italian ryegrass, herbicidal effect grade [23]: 0 (Herbicidal rate of 5% or less (almost no effect)); L: windgrass, herbicidal effect grade [24]: 0 (Herbicidal rate of 5% or less (almost no effect)); Herbicidal effect by foliage application, G: green foxtail [25]: 4 (Herbicidal rate of 70% or more and less than 90%); G: green foxtail, herbicidal effect grade [26]: 0 (Herbicidal rate of 5% or less (almost no effect)); M: velvetleaf, herbicidal effect grade [27]: 2 (Herbicidal rate of 20% or more and less than 40%); herbicidal effect on barnyard grass (H) [28]: 3 (Herbicidal rate of 40% or more and less than 70%); herbicidal effect on Chinese sprangletop (D) [29]: 3 (Herbicidal rate of 40% or more and less than 70%); Herbicidal effect, C: oval-leafed pondweed [30]: 0 (Herbicidal rate of 5% or less (almost no effect)); J: blackgrass, herbicidal effect grade [31]: 0 (Herbicidal rate of 5% or less (almost no effect)) |
| COc1ccccc1-c1sc2cc(F)c(F)cc2c1-c1c(O)c(C)nn(C)c1=O [5-011] | 5 (Herbicidal rate of 90% or more (almost completely withered)) | 3 (Herbicidal rate of 40% or more and less than 70%) | 5 (Herbicidal rate of 90% or more (almost completely withered)) | 5 (Herbicidal rate of 90% or more (almost completely withered)) | 3 (Herbicidal rate of 40% or more and less than 70%) | 5 (Herbicidal rate of 90% or more (almost completely withered)) | 5 (Herbicidal rate of 90% or more (almost completely withered)) | 2 (Herbicidal rate of 20% or more and less than 40%) | 4 (Herbicidal rate of 70% or more and less than 90%) | 3 (Herbicidal rate of 40% or more and less than 70%) | 5 (Herbicidal rate of 90% or more (almost completely withered)) | 4 (Herbicidal rate of 70% or more and less than 90%) | 5 (Herbicidal rate of 90% or more (almost completely withered)) | 2 (Herbicidal rate of 20% or more and less than 40%) | 0 (Herbicidal rate of 5% or less (almost no effect)) | 5 (Herbicidal rate of 90% or more (almost completely withered)) | 4 (Herbicidal rate of 70% or more and less than 90%) | 4 (Herbicidal rate of 70% or more and less than 90%) | 5 (Herbicidal rate of 90% or more (almost completely withered)) | 3 (Herbicidal rate of 40% or more and less than 70%) | Herbicidal effect by foliage application, K: Italian ryegrass [21]: 3 (Herbicidal rate of 40% or more and less than 70%); Herbicidal effect by foliage application, F: southern crabgrass [22]: 2 (Herbicidal rate of 20% or more and less than 40%); K: Italian ryegrass, herbicidal effect grade [23]: 3 (Herbicidal rate of 40% or more and less than 70%); L: windgrass, herbicidal effect grade [24]: 4 (Herbicidal rate of 70% or more and less than 90%); Herbicidal effect by foliage application, G: green foxtail [25]: 5 (Herbicidal rate of 90% or more (almost completely withered)); G: green foxtail, herbicidal effect grade [26]: 4 (Herbicidal rate of 70% or more and less than 90%); M: velvetleaf, herbicidal effect grade [27]: 5 (Herbicidal rate of 90% or more (almost completely withered)); herbicidal effect on barnyard grass (H) [28]: 5 (Herbicidal rate of 90% or more (almost completely withered)); herbicidal effect on Chinese sprangletop (D) [29]: 3 (Herbicidal rate of 40% or more and less than 70%); Herbicidal effect, C: oval-leafed pondweed [30]: 0 (Herbicidal rate of 5% or less (almost no effect)); J: blackgrass, herbicidal effect grade [31]: 3 (Herbicidal rate of 40% or more and less than 70%) |
